Measurements taken from patent publication US9884063B2, “Amido-substituted azole compounds” (Bayer Pharma Aktiengesellschaft, priority 2014, dated 2018).

Biological target: T1, TNKS1 (Homo sapiens, UniProt O95271)
T1 sequence (O95271 1-1327): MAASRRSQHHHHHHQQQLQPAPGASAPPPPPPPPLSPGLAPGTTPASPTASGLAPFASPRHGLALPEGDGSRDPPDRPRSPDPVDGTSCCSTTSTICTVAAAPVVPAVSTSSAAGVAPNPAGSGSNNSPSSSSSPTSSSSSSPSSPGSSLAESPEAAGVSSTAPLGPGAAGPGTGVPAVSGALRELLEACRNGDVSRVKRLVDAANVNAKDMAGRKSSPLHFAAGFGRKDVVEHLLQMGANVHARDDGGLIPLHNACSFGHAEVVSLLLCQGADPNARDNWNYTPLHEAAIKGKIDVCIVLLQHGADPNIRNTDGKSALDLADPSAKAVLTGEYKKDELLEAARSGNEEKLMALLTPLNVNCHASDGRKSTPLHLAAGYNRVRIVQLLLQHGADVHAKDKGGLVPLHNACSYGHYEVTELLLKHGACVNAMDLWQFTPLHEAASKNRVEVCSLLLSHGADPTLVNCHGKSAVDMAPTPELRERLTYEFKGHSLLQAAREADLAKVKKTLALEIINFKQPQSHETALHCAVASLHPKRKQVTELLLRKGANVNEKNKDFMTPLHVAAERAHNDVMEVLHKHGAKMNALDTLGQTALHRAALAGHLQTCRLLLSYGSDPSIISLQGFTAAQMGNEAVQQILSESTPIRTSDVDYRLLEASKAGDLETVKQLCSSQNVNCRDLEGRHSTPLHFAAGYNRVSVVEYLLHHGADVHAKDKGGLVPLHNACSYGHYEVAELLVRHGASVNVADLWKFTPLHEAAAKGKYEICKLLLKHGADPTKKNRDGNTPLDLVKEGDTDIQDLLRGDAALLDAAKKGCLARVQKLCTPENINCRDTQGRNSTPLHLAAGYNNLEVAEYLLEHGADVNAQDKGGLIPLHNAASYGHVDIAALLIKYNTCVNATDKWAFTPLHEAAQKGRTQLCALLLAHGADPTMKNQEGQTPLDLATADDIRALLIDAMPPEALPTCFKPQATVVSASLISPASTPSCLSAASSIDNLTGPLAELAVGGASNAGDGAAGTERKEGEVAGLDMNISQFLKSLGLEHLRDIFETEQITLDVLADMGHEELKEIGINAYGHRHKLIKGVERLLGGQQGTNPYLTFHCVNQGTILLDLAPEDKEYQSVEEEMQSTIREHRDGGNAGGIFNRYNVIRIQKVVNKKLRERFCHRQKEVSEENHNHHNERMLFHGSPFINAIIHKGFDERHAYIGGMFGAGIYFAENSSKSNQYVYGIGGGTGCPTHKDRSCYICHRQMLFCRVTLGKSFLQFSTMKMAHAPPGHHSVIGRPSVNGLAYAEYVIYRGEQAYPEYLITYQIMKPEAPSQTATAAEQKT
Experiment: Modified TNKS1 Assay 2 (auto-parsylation, [3H]-NAD+ SPA)
Assay type: biochemical
Conditions: 6 nM TNKS1, 96 well
Description: The potency of selected compounds according to the invention was assessed applying an modified in vitro inhibition assay. Here, the TNKS1 catalyzed NAD^+-dependent ribosylation of the enzyme itself (auto-parsylation) was detected using [^3H]-NAD^+ as substrate and applying the scintillation proximity assay (SPA) method to detect tritium-labeled, parsylated TNKS1. The intensity of the readout signal is proportional to the incorporated [^3H]-NAD^+. Inhibition of TNKS1 leads to a decreased incorporation of [^3H]-NAD^+ and consequently to a lower readout signal intensity. The concentration of a test compound which inhibits the enzyme activity by 50% (corresponds to half of the normed readout signal intensity) is reported as IC50.
The assay was conducted in a 96 well MTP format with the identical TNKS1 enzyme sample and NAD^+ sample as in the histone ribosylation assay with the following modifications: TNKS1 enzyme sample was diluted with a modified assay buffer (50 mM MES pH 7.0, 1 mM DTT, 0.01% Triton X-100) to a final concentration of 6 nM TNKS1 and 10×NAD^+ solution was diluted with the modified assay buffer (s. above) to a final 0.445×NAD^+ solution doped with 100 Bq/ul [^3H]-NAD^+[Catalog #NET443H050UC, Perkin Elmer, Waltham, Mass., USA]. Substrate solution (10 ul) was incubated with different test compound concentrations (2.5 ul in 10% DMSO in modified assay buffer) or control (2.5 ul 10% DMSO in modified assay buffer only) and enzyme (10 ul) over night at room temperature. Incorporated tritium was measured after addition of 50 ul SPA beads (1 mg/ml) [Catalog #RPNQ0095 20 mg/ml, Perkin Elmer, Waltham, Mass., USA; diluted 1:10 with Dulbecco's phosphate buffered saline, PBS Catalog #D8537, Sigma-Aldrich, Steinheim, Germany] and detection of the photon emission with a beta count plate reader [Wallac MicroBeta®, Perkin Elmer, Waltham, Mass., USA].

Compound | IC50
O=C(Nc1ccc(NC(=O)c2ocnc2C(=O)NCCN2CCC(F)(F)CC2)cc1)c1ccc(F)cc1Cl [Example 218, N^5-{4-[(2-chloro-4-fluorobenzoyl)amino]phenyl}-N^4-[2-(4,4-difluoropiperidin-1-yl)ethyl]-1,3-oxazole-4,5-dicarboxamide] | 0.07 µM
CNC(=O)c1nc[nH]c1C(=O)Nc1ccc(NC(=O)c2ccccc2O)cc1 [Example 239, N^5-{4-[(2-hydroxybenzoyl)amino]phenyl}-N^4-methyl-1H-imidazole-4,5-dicarboxamide] | > 10 µM
CNC(=O)c1nc[nH]c1C(=O)Nc1ccc(NC(=O)c2cc(OC)c(OC)cc2Cl)cc1 [Example 240, N^5-{4-[(2-chloro-4,5-dimethoxybenzoyl)amino]phenyl}-N^4-methyl-1H-imidazole-4,5-dicarboxamide] | 0.008 µM
CNC(=O)c1nc[nH]c1C(=O)Nc1ccc(NC(=O)c2ccccc2C(F)F)cc1 [Example 241, N^5-(4-{[2-(difluoromethyl)benzoyl]amino}phenyl)-N^4-methyl-1H-imidazole-4,5-dicarboxamide] | 2.5 µM
CNC(=O)c1nc[nH]c1C(=O)Nc1ccc(NC(=O)c2ccccc2OC(F)(F)F)cc1 [Example 243, N^4-methyl-N^5-(4-{[2-(trifluoromethoxy)benzoyl]amino}phenyl)-1H-imidazole-4,5-dicarboxamide] | > 10 µM
CNC(=O)c1nc[nH]c1C(=O)Nc1ccc(NC(=O)c2ncccc2Cl)cc1 [Example 247, N^5-(4-{[(3-chloropyridin-2-yl)carbonyl]amino}phenyl)-N^4-methyl-1H-imidazole-4,5-dicarboxamide] | 0.91 µM
CNC(=O)c1nc[nH]c1C(=O)Nc1ccc(NC(=O)c2ccc(OC(F)F)cc2F)cc1 [Example 251, N^5-(4-{[4-(difluoromethoxy)-2-fluorobenzoyl]amino}phenyl)-N^4-methyl-1H-imidazole-4,5-dicarboxamide] | > 10 µM
CNC(=O)c1nc[nH]c1C(=O)Nc1ccc(NC(=O)c2ccc(OC(F)(F)F)cc2F)cc1 [Example 253, N^5-(4-{[2-fluoro-4-(trifluoromethoxy)benzoyl]amino}phenyl)-N^4-methyl-1H-imidazole-4,5-dicarboxamide] | > 10 µM
CCS(=N)(=O)c1ccc(C(=O)Nc2ccc(NC(=O)c3[nH]cnc3C(=O)NCCN3CCCCC3)cc2)c(Cl)c1 (stereo not shown) [Example 256, N^5-(4-{[2-chloro-4-(S-ethylsulfonimidoyl)benzoyl]amino}phenyl)-N^4-[2-(piperidin-1-yl)ethyl]-1H-imidazole-4,5-dicarboxamide] | 0.009 µM
CCNC(=O)c1nc[nH]c1C(=O)Nc1ccc(NC(=O)c2ccccc2S(C)(=O)=O)cc1 [Example 257, N^4-ethyl-N^5-(4-{[2-(methylsulfonyl)benzoyl]amino}phenyl)-1H-imidazole-4,5-dicarboxamide] | 7.8 µM

Continued, values first:

IC50 | Compound
0.007 µM | O=C(Nc1ccc(NC(=O)c2nc[nH]c2C(=O)NCCN2CCCCC2)cc1)c1ccc(F)cc1Br [Example 216, N^4-{4-[(2-bromo-4-fluorobenzoyl)amino]phenyl}-N^5-[2-(piperidin-1-yl)ethyl]-1H-imidazole-4,5-dicarboxamide]
0.01 µM | CN(C)CCNC(=O)c1[nH]cnc1C(=O)Nc1ccc(NC(=O)c2ccc(F)cc2Br)cc1 [Example 217, N^4-{4-[(2-bromo-4-fluorobenzoyl)amino]phenyl}-N^5-[2-(dimethylamino)ethyl]-1H-imidazole-4,5-dicarboxamide]
0.004 µM | O=C(Nc1ccc(NC(=O)c2nc[nH]c2C(=O)NCCN2CCCC(F)C2)cc1)c1ccc(F)cc1Cl (stereo not shown) [Example 226, N^4-{4-[(2-chloro-4-fluorobenzoyl)amino]phenyl}-N^5-[2-(3-fluoropiperidin-1-yl)ethyl]-1H-imidazole-4,5-dicarboxamide]
0.03 µM | O=C(Nc1ccc(NC(=O)c2nc[nH]c2C(=O)NC2CCOC2)cc1)c1ccc(F)cc1Cl (stereo not shown) [Example 236, N^4-{4-[(2-chloro-4-fluorobenzoyl)amino]phenyl}-N^5-(tetrahydrofuran-3-yl)-1H-imidazole-4,5-dicarboxamide]
0.02 µM | CNC(=O)c1nc[nH]c1C(=O)Nc1ccc(NC(=O)c2cc(F)c(F)cc2Cl)cc1 [Example 242, N^5-{4-[(2-chloro-4,5-difluorobenzoyl)amino]phenyl}-N^4-methyl-1H-imidazole-4,5-dicarboxamide]
0.04 µM | CNC(=O)c1nc[nH]c1C(=O)Nc1ccc(NC(=O)c2ccc(C)cc2Cl)cc1 [Example 244, N^5-{4-[(2-chloro-4-methylbenzoyl)amino]phenyl}-N^4-methyl-1H-imidazole-4,5-dicarboxamide]
0.24 µM | CNC(=O)c1nc[nH]c1C(=O)Nc1ccc(NC(=O)c2cc(OC)ccc2Cl)cc1 [Example 248, N^5-{4-[(2-chloro-5-methoxybenzoyl)amino]phenyl}-N^4-methyl-1H-imidazole-4,5-dicarboxamide]
0.23 µM | CCOc1ccc(C(=O)Nc2ccc(NC(=O)c3[nH]cnc3C(=O)NC)cc2)c(Cl)c1 [Example 250, N^5-{4-[(2-chloro-4-ethoxybenzoyl)amino]phenyl}-N^4-methyl-1H-imidazole-4,5-dicarboxamide]
9.3 µM | CNC(=O)c1nc[nH]c1C(=O)Nc1ccc(NC(=O)c2cccc(OC)c2Cl)cc1 [Example 252, N^5-{4-[(2-chloro-3-methoxybenzoyl)amino]phenyl}-N^4-methyl-1H-imidazole-4,5-dicarboxamide]
0.57 µM | CNC(=O)c1nc[nH]c1C(=O)Nc1ccc(NC(=O)c2cnccc2Cl)cc1 [Example 254, N^5-(4-{[(4-chloropyridin-3-yl)carbonyl]amino}phenyl)-N^4-methyl-1H-imidazole-4,5-dicarboxamide]
0.68 µM | CCS(=N)(=O)c1ccc(C(=O)Nc2ccc(NC(=O)c3[nH]cnc3C(=O)NC)cc2)c(Cl)c1 (stereo not shown) [Example 255, N^5-(4-{[2-chloro-4-(S-ethylsulfonimidoyl)benzoyl]amino}phenyl)-N^4-methyl-1H-imidazole-4,5-dicarboxamide]
0.3 µM | CCNC(=O)c1nc[nH]c1C(=O)Nc1ccc(NC(=O)c2ccc(OCC)cc2Cl)cc1 [Example 259, N^5-{4-[(2-chloro-4-ethoxybenzoyl)amino]phenyl}-N^4-ethyl-1H-imidazole-4,5-dicarboxamide]
